# Laboratory results published in patent US20230013669A1, “Antibacterial Treatment Using a Cannabinoid and an Active Agent” (priority 2019, published 2023).
# Where “and” joins values, the source holds several entries; their conditions need not be identical. Equal values may be shown once. Read-outs that look alike come from different tables or passages of the source.
# Legend:
# Assay in all cases: Synergy of cannabidiol with cell-wall disrupting agent (CBD MIC in combination, FICI)
# Assay type in all cases: cell-based
# [1] = test system: Acinetobacter baumannii 03.021.1 (GN_038), Colistin resistant; details: for MIC: Acinetobacter baumannii
# Method: (§1) The compounds were stored short term at 4° C.
# (§2) Analysis was performed using Microsoft Excel.
# [2] = test system: Escherichia coli HS71 (GN_110), CTX-M; details: for MIC: Escherichia coli
# Method: as §1, §2
# [3] = test system: Klebsiella pneumoniae ATCC 13883 (GN_003 / GN_004); details: Klebsiella pneumoniae ATCC 700603
# Method: as §1, §2
# [4] = Example 9, GN_038, listed as CBD
# [5] = CBD with MCC_6442, listed as CBD
compound,measurement,setting,value
"C=C(C)C1CCC(C)=CC1c1c(O)cc(CCCCC)cc1O (stereo not drawn) [Cannabidiol, 2-[3-methyl-6-(1-methylethenyl)-2-cyclohexen-1-yl]-5-pentyl-1,3-benzenediol]",MIC,"[1]; read-out: CBD MIC with MCC_00636 at concentration 0.25 μg/mL, Example 8, GN_038",2 µg/mL
same,MIC,"[1]; read-out: CBD MIC with MCC_00636 at concentration 0.5 μg/mL, Example 8, GN_038",0.000977 µg/mL
same,MIC,"[1]; read-out: CBD MIC with MCC_00636 at concentration […], Example 8, GN_038",32 µg/mL
same,MIC,"[1]; read-out: CBD MIC with MCC_09222 at concentration 8 μg/mL, Example 9, GN_038",4 µg/mL
same,MIC,"[1]; read-out: CBD MIC with MCC_09222 at concentration 16 μg/mL, Example 9, GN_038",2 µg/mL
same,MIC,"[1]; read-out: CBD MIC with MCC_09222 at concentration 32 μg/mL, Example 9, GN_038",1 µg/mL
same,MIC,"[1]; read-out: CBD MIC with MCC_09222 at concentration 64 μg/mL, Example 9, GN_038",0.000977 µg/mL
same,MIC,"[1]; read-out: CBD MIC with MCC_09222 at concentration 128 μg/mL, Example 9, GN_038",0.000977 µg/mL
same,cannabidiol combined with Polymyxin B: synergy,[1]; Example 8,synergy
same,CBD MIC with MCC_00636 at concentration 0.25 μg/mL,"[1]; Example 8, GN_038, listed as CBD",4 µg/mL
same,cannabidiol in combination with MCC_09222: synergy,[1]; Example 9,synergistic effect
same,CBD MIC with MCC_09222 at concentration 8 μg/mL,[1]; [4],2 µg/mL
same,CBD MIC with MCC_09222 at concentration 32 μg/mL,[1]; [4],0.5 µg/mL
same,MIC,"[2]; read-out: CBD MIC with MCC_09222 at concentration 2 μg/mL, Example 9, GN_110",4 µg/mL
same,MIC,"[2]; read-out: CBD MIC with MCC_09222 at concentration 4 μg/mL, Example 9, GN_110",1 µg/mL
same,MIC,"[2]; read-out: CBD MIC with MCC_09222 at concentration 8 μg/mL, Example 9, GN_110",1 µg/mL
same,MIC,"[2]; read-out: CBD MIC with MCC_09222 at concentration 16 μg/mL, Example 9, GN_110",0.5 µg/mL
same,MIC,"[2]; read-out: CBD MIC with MCC_09222 at concentration 32 μg/mL, Example 9, GN_110",0.000977 µg/mL
same,MIC,"[2]; read-out: CBD MIC with MCC_09222 at concentration 64 μg/mL, Example 9, GN_110",0.000977 µg/mL
same,MIC,"[2]; read-out: CBD MIC with MCC_09222 at concentration 128 μg/mL, Example 9, GN_110",0.000977 µg/mL
same,cannabidiol in combination with MCC_09222: synergy,[2]; Example 9,synergistic effect
same,CBD MIC with MCC_09222 at concentration 16 μg/mL,"[2]; Example 9, GN_110, listed as CBD",1 µg/mL
same,FICI range (MIC table),"[3]; CBD with Cefotetan, listed as CBD",1-1.5 and 0.5-1.25
same,FICI,"[3]; CBD with Ceftazidime at 4 μg/mL, listed as CBD",1
same,FICI,"[3]; CBD with Ceftazidime at 8 μg/mL, listed as CBD",1
same,FICI,"[3]; CBD with Ceftazidime at 16 μg/mL, listed as CBD",1.001 and 1
same,FICI,"[3]; CBD with Ceftazidime at 32 μg/mL, listed as CBD",1.002 and 1.001
same,FICI,"[3]; CBD with Ceftazidime at 64 μg/mL, listed as CBD",0.00391 and 0.001957
same,FICI,"[3]; CBD with Ceftazidime at 128 μg/mL, listed as CBD",0.007816 and 0.00391
same,FICI range (MIC table),[3]; CBD with Ceftazidime,0-1
same,FICI,[3]; CBD with Cefuroxime at 1 μg/mL,1.016
same,FICI,[3]; CBD with Cefuroxime at 2 μg/mL,1.031
same,FICI,[3]; CBD with Cefuroxime at 4 μg/mL,1.0625
same,FICI,[3]; CBD with Cefuroxime at 8 μg/mL,1.125
same,FICI,[3]; CBD with Cefuroxime at 16 μg/mL,1.25
same,FICI,[3]; CBD with Cefuroxime at 32 μg/mL,0.5
same,FICI,[3]; CBD with Colistin at 0.031 μg/mL,1.03
same,FICI,[3]; CBD with Colistin at 0.062 μg/mL,1.06
same,FICI,[3]; CBD with Colistin at 0.25 μg/mL,1.25
same,FICI,[3]; CBD with Colistin at 0.5 μg/mL,0.5
same,FICI,[3]; CBD with Colistin at 1 μg/mL,1
same,FICI range (MIC table),[3]; CBD with Colistin,0.5-1.25
same,FICI range (Synergy table),[3]; CBD with Colistin,0.5-1.25
same,FICI range (MIC table),[3]; [5],0.25-1.13 and 0.13-1.06
same,FICI range (Synergy table),[3]; [5],0.25-0.5 and 0.13-0.25
same,FICI,[3]; CBD with MCC_6442 at 0.25 μg/mL,1.031
same,FICI,"[3]; CBD with MCC_6442 at 0.25 μg/mL, listed as CBD",1.016
same,FICI,"[3]; CBD with MCC_6442 at 0.5 μg/mL, listed as CBD",1.0625 and 1.031
same,FICI,"[3]; CBD with MCC_6442 at 1 μg/mL, listed as CBD",1.125 and 1.0625
same,FICI,"[3]; CBD with MCC_6442 at 2 μg/mL, listed as CBD",0.2539 and 0.1289
same,FICI,"[3]; CBD with MCC_6442 at 4 μg/mL, listed as CBD",0.501 and 0.251
same,FICI,[3]; CBD with Ticarcillin at 2 μg/mL,1.002
same,FICI,[3]; CBD with Ticarcillin at 4 μg/mL,1.004
same,FICI,[3]; CBD with Ticarcillin at 16 μg/mL,1.016
same,FICI,[3]; CBD with Ticarcillin at 32 μg/mL,1.031
same,FICI,[3]; CBD with Ticarcillin at 64 μg/mL,1.0625
same,FICI range (MIC table),[3]; CBD with Ticarcillin,1-1.06
same,CBD MIC with Cefotetan,[3]; Cefotetan at 0.015 μg/mL,>256 µg/mL
same,CBD MIC with Cefotetan,[3]; Cefotetan at 0.031 μg/mL,>256 µg/mL
same,CBD MIC with Cefotetan,[3]; Cefotetan at 0.062 μg/mL,>256 µg/mL
same,CBD MIC with Cefotetan,[3]; Cefotetan at 0.25 μg/mL,>256 µg/mL
same,CBD MIC with Cefotetan,[3]; Cefotetan at 0.5 μg/mL,0.001 µg/mL
same,CBD MIC with Ceftazidime,[3]; Ceftazidime at 0.015 μg/mL as headed in Table 64,>256 µg/mL
same,CBD MIC with Ceftazidime,[3]; Ceftazidime at 0.031 μg/mL as headed in Table 64,>256 µg/mL
same,CBD MIC with Ceftazidime,[3]; Ceftazidime at 0.062 μg/mL as headed in Table 64,>256 µg/mL
same,CBD MIC with Ceftazidime,[3]; Ceftazidime at 0.25 μg/mL as headed in Table 64,0.001 µg/mL
same,CBD MIC with Ceftazidime,[3]; Ceftazidime at 0.5 μg/mL as headed in Table 64,0.001 µg/mL
same,CBD MIC with Ceftazidime,[3]; Ceftazidime at 4 μg/mL (Table 66),>32 µg/mL
same,CBD MIC with Ceftazidime,[3]; Ceftazidime at 8 μg/mL (Table 66),>32 µg/mL
